The values that follow are results of earlier work, collected in patent US9044449B2, “X-ray contrast media compositions and methods of using the same to treat, reduce or delay the onset of CNS inflammation and inflammation associated conditions” (3E THERAPEUTICS CORPORATION, priority 2011, dated 2015).

Structures are written as SMILES. Residues, ends and D or L forms follow the SMILES beside them.

In one data set the test system is TNF-alpha. As to conditions: in vitro.
A further data set concerns mast cell degranulation. As to conditions: in vitro; immunological and non-immunological stimuli.
Data set [1] concerns allergen induced nasal obstruction. As to conditions: used as a nasal spray, in vivo.
In data set [2] the target is angiotensin converting enzyme (ACE) (Homo sapiens, UniProt P12821). As to conditions: in vitro; FIG. 2 reproduced from Lasser et al. 1990.
angiotensin converting enzyme (ACE), sequence (P12821 30-1306, species assumed): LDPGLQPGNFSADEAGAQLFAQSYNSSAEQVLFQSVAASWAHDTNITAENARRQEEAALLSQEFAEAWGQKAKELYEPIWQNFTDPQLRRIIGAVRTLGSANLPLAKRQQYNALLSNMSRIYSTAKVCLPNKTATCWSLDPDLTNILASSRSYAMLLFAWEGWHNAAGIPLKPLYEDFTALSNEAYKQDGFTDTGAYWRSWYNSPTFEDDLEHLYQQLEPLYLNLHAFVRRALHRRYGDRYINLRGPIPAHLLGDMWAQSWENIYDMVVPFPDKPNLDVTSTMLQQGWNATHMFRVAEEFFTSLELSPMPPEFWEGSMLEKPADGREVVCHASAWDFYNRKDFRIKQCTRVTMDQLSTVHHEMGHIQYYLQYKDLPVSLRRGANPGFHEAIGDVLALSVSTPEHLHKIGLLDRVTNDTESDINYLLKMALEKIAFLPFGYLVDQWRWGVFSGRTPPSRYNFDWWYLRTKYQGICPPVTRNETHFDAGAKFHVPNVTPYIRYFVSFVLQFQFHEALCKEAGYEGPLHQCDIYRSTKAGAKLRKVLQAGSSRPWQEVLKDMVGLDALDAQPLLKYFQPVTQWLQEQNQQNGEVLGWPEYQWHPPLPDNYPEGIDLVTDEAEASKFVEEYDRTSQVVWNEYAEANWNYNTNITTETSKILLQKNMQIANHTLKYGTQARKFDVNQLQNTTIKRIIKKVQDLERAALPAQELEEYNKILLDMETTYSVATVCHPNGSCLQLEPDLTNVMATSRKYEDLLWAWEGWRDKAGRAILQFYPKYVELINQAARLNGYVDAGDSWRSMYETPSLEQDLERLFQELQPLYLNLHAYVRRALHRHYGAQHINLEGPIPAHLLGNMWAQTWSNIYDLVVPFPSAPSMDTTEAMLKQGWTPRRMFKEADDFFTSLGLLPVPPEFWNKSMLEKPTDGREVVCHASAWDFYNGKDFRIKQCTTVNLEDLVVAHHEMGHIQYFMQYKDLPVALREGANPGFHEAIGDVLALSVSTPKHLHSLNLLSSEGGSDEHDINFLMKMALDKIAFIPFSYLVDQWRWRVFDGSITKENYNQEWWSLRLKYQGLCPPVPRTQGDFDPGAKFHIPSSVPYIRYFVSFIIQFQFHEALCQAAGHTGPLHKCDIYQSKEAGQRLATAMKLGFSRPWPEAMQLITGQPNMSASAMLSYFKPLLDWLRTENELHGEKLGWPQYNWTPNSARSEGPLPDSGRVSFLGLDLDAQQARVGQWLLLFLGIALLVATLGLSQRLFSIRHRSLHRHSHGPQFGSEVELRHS

For the compound `O=C(O)c1cc(=O)c2c(OCC(O)COc3cccc4oc(C(=O)O)cc(=O)c34)cccc2o1` [Sodium cromoglycate], the “inhibition of TNF-alpha” value with TNF-alpha is given as “inhibited TNF-alpha in vitro”. `CC(=O)N[C@@H](CC(=O)[O-])C(=O)N[C@@H](CCC(=O)[O-])C(=O)O.[Mg+2]` [magnesium salt of n-acetyl aspartyl glutamic acid] (Ac-Asp-Glu-OH): in the data set on mast cell degranulation, the “inhibition of mast cell degranulation” value is listed as “inhibit mast cell degranulation”. Also, in data set [1], the “effect on allergen induced nasal obstruction” value is given as “reduce allergen induced nasal obstruction”. For `CCCc1c2oc(C(=O)[O-])cc(=O)c2cc2c(=O)cc(C(=O)[O-])n(CC)c12.[Na+].[Na+]` [nedocrimal sodium], the “inhibition of TNF-alpha” value in the data set on TNF-alpha is “inhibited TNF-alpha in vitro”. Take `C[C@H](O)C(=O)Nc1c(I)c(C(=O)NC(CO)CO)c(I)c(C(=O)NC(CO)CO)c1I` [purified iopamidol, iopamidol]: the “inhibition of ACE compared with commercial iopamidol (contains chelator)” value in data set [2] was “diminishes the inhibition ACE significantly”.
